# Reference: patent publication US20070027198A1, “Crystal of heterocyclic compound” (priority 2003, published 2007)
# Assays:
# Type in all cases: physicochemical
# [1] = Investigation of hygroscopicity (weight change and powder X-ray diffraction after storage in a desiccator); conditions: for transformation of crystalline form (powder X-ray diffraction before and after storage): 25° C. in 93% RH for 14 days; for weight change caused by absorption of moisture: 93% RH at 25° C., stored up to 14 days
# Protocol: The powder X-ray diffraction spectra were measured by means of a Rigaku Corporation's RAD-2B (target: Cu; Voltage: 40 kV; current: 20 mA; scanning speed: 4°/minute; measurement error: 2θ±0.2°).
# Form I crystals and Form II crystals of Compound A, approximately 1 g each, were precisely weighed in weighing bottles, which were then kept in a desiccator of 93% RH at 25° C. […] In addition, the powder X-ray diffraction spectra were measured before and after preservation. The results are shown in FIG. 3 (weight change of Form I crystal), FIG. 4 (weight change of Form II crystal), FIG. 5 (powder X-ray diffraction spectrum of Form I crystal), and FIG. 6 (powder X-ray diffraction spectrum of Form II crystal).
# [2] = Investigation of transformation mediated by solvents (suspension in toluene, crystalline form confirmed by DSC); conditions: 50 mg suspended in 1 ml of toluene, stirred overnight
# Protocol: The differential scanning calorimetry in Example 1 and Example 2 was made by means of a Perkin Elmer DSC7 (temperature-raising rate: 10° C./minute; the range of measurement: 50° C. (constant temperature 1 minute)→180° C.). The differential scanning calorimetry in Experimental Example 4 was made by means of Shimadzu Corporation's DSC-50 (temperature-raising rate: 2° C./minute; the range of measurement: room temperature→220° C.).
# The influence of toluene (solvent) on the crystalline form of Compound A was investigated.
# Form I crystals and Form II crystals of Compound A, 50 mg each, were weighed and respectively suspended in 1 ml of toluene, and stirred overnight. Thereafter, the crystals were separated by filtration and dried, of which the crystalline form was confirmed by a differential scanning calorimetry.
# [3] = Investigation of thermodynamic stability by differential scanning calorimetry
# Protocol: The differential scanning calorimetry in Experimental Example 5 was made by means of a Perkin Elmer DSC7 (for temperature-raising rate of 1° C./minute, the range of measurement: 130° C.→160° C.; and for temperature-raising rate of 2, 5, 7 or 10° C./minute, the range of measurement: 120° C.→170° C.).
# The thermodynamic stability of the crystal of Compound A was investigated by differential scanning calorimetry.
# The differential scanning calorimetry was carried out at a temperature-raising rate of 1, 2 or 5° C./minute for Form I crystal of Compound A and at 1, 5, 7 or 10° C./minute for Form II crystal. The results are shown in FIG. 7 (a chart of differential scanning calorimetry in Form I crystal), FIG. 8 and FIG. 9 (a chart of differential scanning calorimetry in Form II crystal).
SMILES,transformation of crystalline form (powder X-ray diffraction before and after storage) ([1]; listed as Form I crystals),weight change caused by absorption of moisture ([1]; listed as Form I crystals),transformation of crystalline form in solvent [2],"endothermic peaks in differential scanning calorimetry ([3]; temperature-raising rate of 1, 2 or 5° C./minute)",transformation of crystalline form (powder X-ray diffraction before and after storage) [1],weight change caused by absorption of moisture [1],transformation of crystalline form in solvent ([2]; listed as form II crystal),"peak of Form I crystal in differential scanning calorimetry ([3]; lower temperature-raising rate: 7° C./minute, 5° C./minute, 1° C./minute)",peak of Form I crystal in differential scanning calorimetry ([3]; temperature-raising rate of 10° C./minute)
"Cc1ccc(-c2nc(CCCC[C@H]3CO[C@@](C)(C(=O)O)OC3)c(C)o2)cc1 [Form I crystal, 2-methyl-c-5-[4-[5-methyl-2-(4-methylphenyl)-1,3-oxazol-4-yl]butyl]-1,3-dioxane-r-2-carboxylic acid]",transformation of crystalline form (from Form I to Form II) was recognized,2.3%,transformed into Form II crystal,only one endothermic peak,,,,,
"Cc1ccc(-c2nc(CCCC[C@H]3CO[C@@](C)(C(=O)O)OC3)c(C)o2)cc1 [Form II crystal, 2-methyl-c-5-[4-[5-methyl-2-(4-methylphenyl)-1,3-oxazol-4-yl]butyl]-1,3-dioxane-r-2-carboxylic acid]",,,,,no transformation of crystalline form,no change of weight,no transformation of crystalline form occurs,a peak resulting from Form I crystal was recognized,no peak of Form I crystal was confirmed
